Measurements from patent publication US10092570B2 (Incyte Corporation, priority 2011, dated 2018).
Where a name gives a salt, the structure may show the parent alone.

Biological target: PI3Kδ (p110δ/p85α) (Homo sapiens (Human), UniProt O00329)
Assay: Example A3: PI3Kδ scintillation proximity assay
Format: biochemical
Conditions: scintillation proximity assay, 20 μM ATP, 4 nM PI3Kδ; read-out: PI3Kδ SPA IC50
Experimental: [γ-^33P]ATP (10 mCi/mL) was purchased from Perkin-Elmer (Waltham, Mass.). […] PI3Kδ (p110δ/p85α) was purchased from Millipore (Bedford, Mass.). ATP, MgCl2, DTT, EDTA, MOPS and CHAPS were purchased from Sigma-Aldrich (St. Louis, Mo.). Wheat Germ Agglutinin (WGA) YSi SPA Scintillation Beads was purchased from GE healthcare life sciences (Piscataway, N.J.).
The kinase reaction was conducted in polystyrene 384-well matrix white plate from Thermo Fisher Scientific in a final volume of 25 μL. Inhibitors were first diluted serially in DMSO and added to the plate wells before the addition of other reaction components. The final concentration of DMSO in the assay was 0.5%. The PI3K assays were carried out at room temperature in 20 mM MOPS, pH 6.7, 10 mM MgCl2, 5 mM DTT and CHAPS 0.03%. Reactions were initiated by the addition of ATP, the final reaction mixture consisted of 20 μM PIP2, 20 μM ATP, 0.2 μCi [γ-^33P] ATP, 4 nM PI3Kδ. […] 25 mM EDTA, 400 μM ATP. The final concentration of SPA beads was 1.0 mg/mL. After the plate sealing, plates were shaken overnight at room temperature and centrifuged at 1800 rpm for 10 minutes, the radioactivity of the product was determined by scintillation counting on Topcount (Perkin-Elmer). IC50 determination was performed by fitting the curve of percent control activity versus the log of the inhibitor concentration using the GraphPad Prism 3.0 software.

Chain of PI3Kδ (p110δ/p85α) (O00329 whole entry): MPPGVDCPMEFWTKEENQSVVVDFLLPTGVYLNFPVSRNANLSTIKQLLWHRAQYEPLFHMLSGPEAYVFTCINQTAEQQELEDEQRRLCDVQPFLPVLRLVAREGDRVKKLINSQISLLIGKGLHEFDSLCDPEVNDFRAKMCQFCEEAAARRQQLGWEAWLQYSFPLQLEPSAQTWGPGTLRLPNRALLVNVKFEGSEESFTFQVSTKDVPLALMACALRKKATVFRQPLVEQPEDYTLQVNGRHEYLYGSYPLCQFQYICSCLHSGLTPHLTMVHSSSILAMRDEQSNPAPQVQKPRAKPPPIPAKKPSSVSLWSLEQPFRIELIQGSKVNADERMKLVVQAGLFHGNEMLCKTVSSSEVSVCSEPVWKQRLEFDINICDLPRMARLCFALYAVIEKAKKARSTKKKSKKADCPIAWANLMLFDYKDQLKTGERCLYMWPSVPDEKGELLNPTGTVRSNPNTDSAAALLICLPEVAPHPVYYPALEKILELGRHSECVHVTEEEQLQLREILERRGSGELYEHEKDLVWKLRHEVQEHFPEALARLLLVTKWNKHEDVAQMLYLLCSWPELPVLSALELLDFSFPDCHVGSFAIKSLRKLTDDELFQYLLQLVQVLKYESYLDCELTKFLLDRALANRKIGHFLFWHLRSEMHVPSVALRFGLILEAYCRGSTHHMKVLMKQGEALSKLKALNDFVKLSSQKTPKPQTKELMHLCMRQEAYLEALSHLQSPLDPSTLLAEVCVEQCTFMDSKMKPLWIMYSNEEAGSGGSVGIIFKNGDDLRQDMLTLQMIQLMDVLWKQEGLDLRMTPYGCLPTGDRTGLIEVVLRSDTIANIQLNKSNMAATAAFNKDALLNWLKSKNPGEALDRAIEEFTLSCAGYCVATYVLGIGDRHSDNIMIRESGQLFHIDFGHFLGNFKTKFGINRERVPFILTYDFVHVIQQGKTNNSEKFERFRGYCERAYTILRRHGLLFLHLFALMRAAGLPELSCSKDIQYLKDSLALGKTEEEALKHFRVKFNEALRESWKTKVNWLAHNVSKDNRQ
Chain of PI3Kδ (p110δ/p85α) (P27986 whole entry partner): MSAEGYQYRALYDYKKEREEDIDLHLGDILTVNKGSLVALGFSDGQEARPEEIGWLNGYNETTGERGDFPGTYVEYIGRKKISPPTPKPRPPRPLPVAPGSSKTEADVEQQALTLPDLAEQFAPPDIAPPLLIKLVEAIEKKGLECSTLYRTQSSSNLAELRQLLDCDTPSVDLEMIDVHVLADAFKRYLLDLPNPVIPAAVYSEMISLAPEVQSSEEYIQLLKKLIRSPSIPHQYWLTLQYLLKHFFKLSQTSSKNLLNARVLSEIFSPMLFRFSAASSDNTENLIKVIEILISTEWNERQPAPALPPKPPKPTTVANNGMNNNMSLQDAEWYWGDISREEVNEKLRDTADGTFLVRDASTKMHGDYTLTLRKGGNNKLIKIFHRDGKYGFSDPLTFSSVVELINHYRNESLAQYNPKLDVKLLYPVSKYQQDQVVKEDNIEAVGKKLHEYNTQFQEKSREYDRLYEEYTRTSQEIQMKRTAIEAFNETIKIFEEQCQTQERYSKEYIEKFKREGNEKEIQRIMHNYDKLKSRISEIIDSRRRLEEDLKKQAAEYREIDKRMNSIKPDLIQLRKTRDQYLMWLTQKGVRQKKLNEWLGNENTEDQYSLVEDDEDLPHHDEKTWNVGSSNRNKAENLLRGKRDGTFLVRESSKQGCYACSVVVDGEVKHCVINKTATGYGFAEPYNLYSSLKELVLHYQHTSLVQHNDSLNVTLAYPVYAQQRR

For COc1c(C(C)n2cc(C)c(=O)c3c(N)ncnc32)cc(Cl)c(C)c1-c1ccc(C(=O)N(C)C)nc1 (stereo not drawn) [Example 360, 5-{3-[1-(4-Amino-6-methyl-5-oxopyrido[2,3-d]pyrimidin-8(5H)-yl)ethyl]-5-chloro-2-methoxy-6-methylphenyl}-N,N-dimethylpyridine-2-carboxamide bis(trifluoroacetate)], the IC50 was under 10 nM.

COc1c(C(C)n2nc(C)c3c(N)ncnc32)cc(Cl)c(C)c1-c1cnn(C2CCN(C)CC2)c1 (single isomer, unassigned) [Example 181, 1-(1-(5-Chloro-2-methoxy-4-methyl-3-(1-(1-methylpiperidin-4-yl)-1H-pyrazol-4-yl)phenyl)ethyl)-3-methyl-1H-pyrazolo[3,4-d]pyrimidin-4-amine] gave an IC50 of under 10 nM.

For COC(=O)N1CC(c2c(C#N)c(Cl)cc(C(C)n3nc(C)c4c(N)ncnc43)c2OC)C1 (single isomer, unassigned) [Example 289, Methyl 3-{3-[1-(4-amino-3-methyl-1H-pyrazolo[3,4-d]pyrimidin-1-yl)ethyl]-5-chloro-6-cyano-2-methoxyphenyl}azetidine-1-carboxylate], the IC50 was under 10 nM.

CCOc1c(C(C)n2nc(C)c3c(N)ncnc32)cc(Cl)c(C#N)c1-c1ccc(-c2nnc(C)o2)nc1 (racemic) [Example 338, 4-[1-(4-amino-3-methyl-1H-pyrazolo[3,4-d]pyrimidin-1-yl)ethyl]-6-chloro-3-ethoxy-2-[6-(5-methyl-1,3,4-oxadiazol-2-yl)pyridin-3-yl]benzonitrile] gave an IC50 of under 10 nM.

Work on COc1c(C(C)n2nc(C)c3c(N)ncnc32)cc(C)c(C#N)c1C1CN(CC(C)(C)O)C1 (stereo not drawn) [Example 328, 4-[-1-(4-amino-3-methyl-1H-pyrazolo[3,4-d]pyrimidin-1-yl)ethyl]-2-[l-(2-hydroxy-2-methylpropyl)azetidin-3-yl]-3-methoxy-6-methylbenzonitrile] yielded an IC50 of under 10 nM.

In the case of COc1c(C(C)n2nc(C)c3c(N)ncnc32)cc(Cl)c(C)c1C1CN(C(C)=O)C1 (stereo not drawn) [Example 2, 1-{1-[3-(1-Acetylazetidin-3-yl)-5-chloro-2-methoxy-4-methylphenyl]ethyl}-3-methyl-1H-pyrazolo[3,4-d]pyrimidin-4-amine trifluoroacetate], the IC50 is reported as under 10 nM.

COc1c(C(C)n2nc(C)c3c(N)ncnc32)cc(Cl)c(C#N)c1C1CN(C2CCOC2)C1 (single isomer, unassigned) [Example 276, 4-[1-(4-Amino-3-methyl-1H-pyrazolo[3,4-d]pyrimidin-1-yl)ethyl]-6-chloro-3-methoxy-2-[1-(tetrahydrofuran-3-yl)azetidin-3-yl]benzonitrile] was tested, and the IC50 was under 10 nM.

In the case of COc1c(C(C)n2nc(C)c3c(N)ncnc32)cc(Cl)c(C)c1-c1ccc(C(=O)N(C)C)nc1 (stereo not drawn) [Example 11, 5-{3-[1-(4-Amino-3-methyl-1H-pyrazolo[3,4-d]pyrimidin-1-yl)ethyl]-5-chloro-2-methoxy-6-methylphenyl}-N,N-dimethylpyridine-2-carboxamide bis(trifluoroacetate)], the IC50 is reported as under 10 nM.

With COc1c(C(C)n2cc(-c3cn[nH]c3)c(=O)c3c(N)ncnc32)cc(Cl)c(C)c1-c1ccc(C(=O)N(C)C)nc1 (stereo not drawn) [Example 359, 5-(3-{1-[4-Amino-5-oxo-6-(1H-pyrazol-4-yl)pyrido[2,3-d]pyrimidin-8(5H)-yl]ethyl}-5-chloro-2-methoxy-6-methylphenyl)-N,N-dimethylpyridine-2-carboxamide] the IC50 was under 10 nM.

With CCOc1c(C(C)n2nc(I)c3c(N)ncnc32)cc(Cl)c(C)c1-c1ccc(C(=O)N(C)C)nc1 (racemic) [Example 15, 5-{3-[1-(4-Amino-3-iodo-1H-pyrazolo[3,4-d]pyrimidin-1-yl)ethyl]-5-chloro-2-ethoxy-6-methylphenyl}-N,N-dimethylpyridine-2-carboxamide] the IC50 was under 10 nM.

Work on COc1c(C(C)n2nc(C(F)F)c3c(N)ncnc32)cc(C#N)c(C)c1C1CN(C[C@H](C)O)C1 (stereo partly drawn) [Example 131, 5-{1-[4-Amino-3-(difluoromethyl)-1H-pyrazolo[3,4-d]pyrimidin-1-yl]ethyl}-3-{1-[(2S)-2-hydroxypropyl]azetidin-3-yl}-4-methoxy-2-methylbenzonitrile] yielded an IC50 of under 10 nM.

CNC(=O)N1CC(c2c(C#N)c(Cl)cc(C(C)n3nc(C)c4c(N)ncnc43)c2OC)C1 (single isomer, unassigned) [Example 294, 3-{3-[1-(4-Amino-3-methyl-1H-pyrazolo[3,4-d]pyrimidin-1-yl)ethyl]-5-chloro-6-cyano-2-methoxyphenyl}-N-methylazetidine-1-carboxamide] was tested, and the IC50 was under 10 nM.

CCOc1c(C(C)n2nc(C)c3c(N)ncnc32)cc(Cl)c(C#N)c1C1CN(CCC(F)(F)F)C1 (single isomer, unassigned) [Example 234, 4-[1-(4-Amino-3-methyl-1H-pyrazolo[3,4-d]pyrimidin-1-yl)ethyl]-6-chloro-3-ethoxy-2-[1-(3,3,3-trifluoropropyl)azetidin-3-yl]benzonitrile] gave an IC50 of under 10 nM.

CCOc1c(C(C)n2nc(C)c3c(N)ncnc32)cc(Cl)c(C#N)c1C1CN(C(C)(C)C(N)=O)C1 (single isomer, unassigned) [Example 239, 2-(3-{3-[1-(4-Amino-3-methyl-1H-pyrazolo[3,4-d]pyrimidin-1-yl)ethyl]-5-chloro-6-cyano-2-ethoxyphenyl}azetidin-1-yl)-2-methylpropanamide] showed an IC50 of under 10 nM.

CCNC(=O)c1c(C)c(Cl)cc(C(C)n2nc(-c3cnc4[nH]ccc4c3)c3c(N)ncnc32)c1OCC (racemic) [Example 91, 3-{1-[4-Amino-3-(1H-pyrrolo[2,3-b]pyridin-5-yl)-1H-pyrazolo[3,4-d]pyrimidin-1-yl]ethyl}-5-chloro-2-ethoxy-N-ethyl-6-methylbenzamide] gave an IC50 of under 10 nM.

In the case of CCNC(=O)c1c(C)c(Cl)cc(C(C)n2nc(-c3cc(O)cc(F)c3)c3c(N)ncnc32)c1OCC (racemic) [Example 88, 3-{1-[4-Amino-3-(3-fluoro-5-hydroxyphenyl)-1H-pyrazolo[3,4-d]pyrimidin-1-yl]ethyl}-5-chloro-2-ethoxy-N-ethyl-6-methylbenzamide], the IC50 is reported as under 10 nM.

Work on CCOc1c(C(C)n2nc(C)c3c(N)ncnc32)cc(Cl)c(C#N)c1-c1cncc(-c2ncco2)c1 (racemic) [Example 339, 4-[1-(4-amino-3-methyl-1H-pyrazolo[3,4-d]pyrimidin-1-yl)ethyl]-6-chloro-3-ethoxy-2-[5-(1,3-oxazol-2-yl)pyridin-3-yl]benzonitrile] yielded an IC50 of under 10 nM.

Compound CCOc1c(C(C)n2nc(C)c3c(N)ncnc32)cc(Cl)c(F)c1C1CN(CC(F)(F)F)C1 (racemic) [Example 141, 1-(1-{5-Chloro-2-ethoxy-4-fluoro-3-[1-(2,2,2-trifluoroethyl)azetidin-3-yl]phenyl}ethyl)-3-methyl-1H-pyrazolo[3,4-d]pyrimidin-4-amine] has an IC50 of under 10 nM.

Work on COc1c(C(C)n2nc(C(F)F)c3c(N)ncnc32)cc(Cl)c(F)c1C1CN(CCO)C1 (stereo not drawn) [Example 74, 2-[3-(3-{1-[4-Amino-3-(difluoromethyl)-1H-pyrazolo[3,4-d]pyrimidin-1-yl]ethyl}-5-chloro-6-fluoro-2-methoxyphenyl)azetidin-1-yl]ethanol] yielded an IC50 of under 10 nM.

COc1c(C(C)n2nc(C(F)F)c3c(N)ncnc32)cc(Cl)c(F)c1C1CN(C(C)C)C1 (stereo not drawn) [Example 73, 1-{1-[5-Chloro-4-fluoro-3-(1-isopropylazetidin-3-yl)-2-methoxyphenyl]ethyl}-3-(difluoromethyl)-1H-pyrazolo[3,4-d]pyrimidin-4-amine] showed an IC50 of under 10 nM.

For CNC(=O)[C@@H](C)N1CC(c2c(C)c(Cl)cc(C(C)n3nc(C)c4c(N)ncnc43)c2OC)C1 (stereo partly drawn) [Example 110, (2R)-2-(3-{3-[1-(4-Amino-3-methyl-1H-pyrazolo[3,4-d]pyrimidin-1-yl)ethyl]-5-chloro-2-methoxy-6-methylphenyl}azetidin-1-yl)-N-methylpropanamide trifluoroacetate], the IC50 was under 10 nM.

In the case of CNC(=O)[C@@H](C)N1CC(c2c(C)c(C#N)cc(C(C)n3nc(C(F)F)c4c(N)ncnc43)c2OC)C1 (stereo partly drawn) [Example 135, (2R)-2-[3-(3-{1-[4-Amino-3-(difluoromethyl)-1H-pyrazolo[3,4-d]pyrimidin-1-yl]ethyl}-5-cyano-2-methoxy-6-methylphenyl)azetidin-1-yl]-N-methylpropanamide], the IC50 is reported as under 10 nM.

COc1c(C(C)n2nc(C)c3c(N)ncnc32)cc(Cl)c(C#N)c1C1CN(C2CCOCC2)C1 (single isomer, unassigned) [Example 277, 4-[1-(4-Amino-3-methyl-1H-pyrazolo[3,4-d]pyrimidin-1-yl)ethyl]-6-chloro-3-methoxy-2-[1-(tetrahydro-2H-pyran-4-yl)azetidin-3-yl]benzonitrile] was tested, and the IC50 was under 10 nM.

For CCOc1c(C(C)n2nc(C)c3c(N)ncnc32)cc(Cl)c(C#N)c1C1CN(CC#N)C1 (single isomer, unassigned) [Example 235, 4-[1-(4-Amino-3-methyl-1H-pyrazolo[3,4-d]pyrimidin-1-yl)ethyl]-6-chloro-2-[1-(cyanomethyl)azetidin-3-yl]-3-ethoxybenzonitrile], the IC50 was under 10 nM.
